We go through seven molecules from ChEMBL document CHEMBL1201862, “PubChem BioAssay data set” (2004).

Some test systems named below: OVCAR-3; U-251; SF-268; CAKI-1; MCF7; RPMI-8226; HOP-62; KM12; NCI-H460; SK-MEL-2; TK-10; K562; UO-31; HL-60; SK-MEL-28; OVCAR-5; CCRF-CEM; HCT-116; SN12C; SK-OV-3.
Assay in all cases: DTP human tumour cell line panel, 48 h

Each structure is given as a SMILES string.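 Briefly, cells in 96-well plates were exposed to five compound concentrations for 48 h, and endpoints were estimated by linear interpolation. GI50 is the concentration that inhibits growth by half.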 The source made the active and inactive calls. Cut-off read from the data, not from the text of the source: active = GI50 up to about 1.1 µM and inactive = higher. Some results are limits rather than exact numbers.

Broadly, the GI50 is the concentration that inhibits growth by half. Regarding `CCN(CC)CCOC(c1cc(OC)ccc1OC)c1ccc2n1-c1ccccc1OC2` (stereo not drawn), the GI50 in the assay on OVCAR-3 is 15.7 µM (inactive); with U-251 it was 14.9 µM (inactive); in the assay on SF-268, 14.5 µM (inactive); in the assay with CAKI-1 it was 14.9 µM (inactive); in the assay on MCF7, 14.6 µM (inactive); in the assay on RPMI-8226, 3.44 µM (inactive). The GI50 is 16.4 µM (inactive) in the assay on HOP-62; 16.5 µM (inactive) in the assay with KM12; 12.4 µM (inactive) with NCI-H460; 13.1 µM (inactive) with SK-MEL-2; 12.1 µM (inactive) in the assay with TK-10; 7.23 µM (inactive) with K562. Moreover, the GI50 in the assay with UO-31 was 11 µM (inactive); in the assay on HL-60, 13.2 µM (inactive); in the assay on SK-MEL-28, 15 µM (inactive); in the assay on OVCAR-5, 15.8 µM (inactive); in the assay with CCRF-CEM it was 3.25 µM (inactive); in the assay on HCT-116 it was 12.6 µM (inactive). Also, the GI50 with SN12C is 2.48 µM (inactive).
As to `COc1ccccc1-n1cnc2c1=NC(C)(C)NC=2C(N)=O`, the GI50 in the assay on OVCAR-3, in the assay with U-251, in the assay on SF-268, in the assay with CAKI-1, in the assay with MCF7 and with RPMI-8226 was > 100 µM (inactive) throughout. Moreover, the GI50 in the assay with HOP-62, in the assay with KM12, in the assay with NCI-H460, with SK-MEL-2, in the assay on TK-10 and in the assay with K562 was > 100 µM (inactive) in each case. The GI50 in the assay on SK-OV-3, in the assay with HL-60, in the assay on SK-MEL-28, in the assay on OVCAR-5, with CCRF-CEM and with HCT-116 was > 100 µM (inactive) throughout. Besides, the GI50 with SN12C is > 100 µM (inactive).
Regarding `C[n+]1c2ccc(Cl)cc2nc2cc(-c3ccccc3)ccc21`, the GI50 in the assay on OVCAR-3 was 2.03 µM (inactive); in the assay with U-251, 5.21 µM (inactive); with SF-268, 14.7 µM (inactive); in the assay with CAKI-1 it was 16.4 µM (inactive); with MCF7, 1.32 µM (inactive); in the assay with RPMI-8226, 1.93 µM (inactive). Besides, the GI50 in the assay on HOP-62 is 23 µM (inactive); in the assay on KM12, 4.65 µM (inactive); with NCI-H460 it was 14.9 µM (inactive); in the assay on SK-MEL-2 it was 19.8 µM (inactive); in the assay with TK-10, 22.8 µM (inactive); in the assay with K562 it was 7.13 µM (inactive). Moreover, the GI50 was 21.3 µM (inactive) with UO-31; 3.06 µM (inactive) in the assay on HL-60; 20.1 µM (inactive) in the assay on SK-MEL-28; 24.1 µM (inactive) in the assay with OVCAR-5; 60.7 µM (inactive) in the assay on CCRF-CEM; 16.7 µM (inactive) with HCT-116. Further, in the assay on SN12C, the GI50 is 4.24 µM (inactive).
In the case of `COc1ccccc1C1CC(=O)CC(c2ccccc2OC)C12C(=O)NC(=S)NC2=O` (stereo not drawn), the GI50 with OVCAR-3 was 80.2 µM (inactive); in the assay with U-251, > 100 µM (inactive); in the assay with SF-268, > 100 µM (inactive); in the assay with CAKI-1, 68.9 µM (inactive); with MCF7, 46.8 µM (inactive); with RPMI-8226, 19.9 µM (inactive). Also, the GI50 in the assay with HOP-62 is > 100 µM (inactive); with KM12, 62.8 µM (inactive); in the assay with NCI-H460, 54.5 µM (inactive); with SK-MEL-2 it was 73.8 µM (inactive); with TK-10, > 100 µM (inactive); with K562 it was 47.6 µM (inactive). The GI50 in the assay with UO-31 was 87.9 µM (inactive); in the assay on HL-60, 9.93 µM (inactive); with SK-MEL-28, 32.4 µM (inactive); in the assay with OVCAR-5, > 100 µM (inactive); in the assay on CCRF-CEM, 46.6 µM (inactive); in the assay on HCT-116, 80.5 µM (inactive). The GI50 with SN12C is 65.8 µM (inactive).
In the case of `COCn1c2ccc(OC(C)=O)cc2c2c(=O)oc(C)nc21`, the GI50 is > 100 µM (inactive) in the assay on U-251; > 100 µM (inactive) with SF-268; 57.7 µM (inactive) in the assay with CAKI-1; > 100 µM (inactive) in the assay on MCF7; > 100 µM (inactive) in the assay with RPMI-8226; > 100 µM (inactive) in the assay on HOP-62. In addition, the GI50 with KM12, in the assay on NCI-H460, in the assay on SK-MEL-2, in the assay on TK-10, with K562 and in the assay on UO-31 was > 100 µM (inactive) throughout. Moreover, the GI50 in the assay on SK-OV-3, in the assay on HL-60, in the assay on SK-MEL-28, in the assay with OVCAR-5, in the assay on CCRF-CEM and in the assay with HCT-116 was > 100 µM (inactive) each time. For the same molecule, the GI50 in the assay on SN12C is > 100 µM (inactive).
As for `CC1(C)[C@@H]2C[C@H]1c1cnc(-c3ccccn3)cc1C2CCCCC[C@@H]1c2cc(-c3ccccn3)ncc2[C@@H]2C[C@H]1C2(C)C` (stereo partly drawn), the GI50 was 0.404 µM (active) in the assay on OVCAR-3; 0.897 µM (active) with U-251; 0.687 µM (active) with SF-268; 0.628 µM (active) with CAKI-1; 0.809 µM (active) with MCF7; 2.51 µM (inactive) in the assay on RPMI-8226. In addition, the GI50 was 1.42 µM (inactive) with HOP-62; 1.48 µM (inactive) in the assay on KM12; 1.99 µM (inactive) with NCI-H460; 7.1 µM (inactive) with SK-MEL-2; > 49.2 µM (inactive) in the assay with TK-10; 0.473 µM (active) in the assay with K562. The GI50 with UO-31 is 0.853 µM (active); in the assay on HL-60 it was 0.426 µM (active); in the assay with SK-MEL-28 it was 2.29 µM (inactive); in the assay on OVCAR-5 it was > 20.3 µM (inactive); with CCRF-CEM it was 0.502 µM (active); in the assay with HCT-116 it was 0.489 µM (active). Moreover, the GI50 in the assay on SN12C was 1.53 µM (inactive).
Take `OB1OCc2ccccc21` [BENZOXABOROLE]: the GI50 in the assay with OVCAR-3 is 60.4 µM (inactive); in the assay on U-251, 62.7 µM (inactive); in the assay with SF-268, 42.2 µM (inactive); with CAKI-1, 34.7 µM (inactive); in the assay with MCF7 it was 24.9 µM (inactive); with RPMI-8226 it was 18.2 µM (inactive). The GI50 in the assay with HOP-62 was 26.7 µM (inactive); in the assay on KM12, 65.9 µM (inactive); in the assay on NCI-H460 it was 34.7 µM (inactive); in the assay on SK-MEL-2, 37.2 µM (inactive); with TK-10 it was 38.9 µM (inactive); in the assay with K562 it was 67.8 µM (inactive). The GI50 is 32.4 µM (inactive) in the assay with UO-31; 16.1 µM (inactive) in the assay on SK-OV-3; > 100 µM (inactive) in the assay with HL-60; 21.6 µM (inactive) with SK-MEL-28; 18 µM (inactive) in the assay on CCRF-CEM; 44.4 µM (inactive) in the assay on HCT-116. Also, the GI50 in the assay with SN12C was 39.7 µM (inactive).
